# Experimental data from patent US20220204502A1, “CRYSTAL POLYMORPHISM OF PI3K INHIBITOR AND METHOD FOR PREPARING SAME” (BORYUNG PHARMACEUTICAL CO., LTD, priority 2019, published 2022).
# Columns and labels:
# [1] = Accelerated stability test (HPLC impurities, content, crystal form); format: physicochemical; conditions: for Crystal form / Content / Individual impurity / Total impurity: 4θ±2° C. and RH 75±5%; for Content / Individual impurity / Total impurity: wt %
# Procedure: The powder of the crystal form I compound according to above Example 8 was doubly packed with an LDPE bag, then packed with a paperboard tube, and left alone at 4θ±2° C. and RH 75±5% for zero and six months, after which impurities were measured by using a high speed liquid chromatography under the following conditions.
# <HPLC Conditions> • Detector: Ultraviolet absorption spectrophotometer (wavelength: 307 nm) • Column: Kromasil 100-5C18 (4.6×250 mm, […]) or a column similar thereto • Column temperature: 25° C. • Injection amount: 10 μl • Mobile phase: Mobile phase A—20 mmol/L of ammonium acetate buffer solution (pH 4.5, acetic acid), Mobile phase B—acetonitrile:methanol=8:2
# [2] = Hygroscopicity (Dynamic Vapor Sorption, DVS) measurement; format: physicochemical; conditions: 25° C.; for hygroscopicity (overall assessment): DVS 0 to 95 % RH
# Procedure: The hygroscopicity was tested by using the crystal form I of above Example 8.
# i) Model name: DVS Intrinsic (Surface Measurement Systems LTD. UK)
# ii) Humidity: Initial 0% maximum 95%
# iii) Experiment time: 7 hours
# After placing a certain amount (10 mg) of the crystal form I compound prepared in Example 8 on a sample pan in a sample chamber, nitrogen was flowed through a tube connected into the sample chamber for the first one hour so as to remove moisture in the chamber and moisture of the sample. Humidity in the chamber was controlled by controlling water vapor, and target relative humidity was increased step by step from initial 0% to 10% every 20 minutes, so as to measure a moisture content of crystal form I for 205 min. A mass of the sample was measured […] (from 0% RH to 95% RH) to collect data at 10% RH intervals, and a change in weight of the sample according to the increase and decrease of humidity was graphed.
# Long-term stability test = format: physicochemical; conditions: for Content / Individual impurity / Total impurity / Crystal form: 25±2° C. and RH 6θ±5%; for Content / Individual impurity / Total impurity: capsule in PTP packing, wt %
# Procedure: The powder of the crystal form I compound according to above Example 8 was doubly packed with an LDPE bag, then packed with a paperboard tube, and filled into a capsule, after which the capsule was subjected to PTP packing to carry out a long-term stability test (25±2° C. and RH 6θ±5%).
# [3] = Stress stability test (temperature / humidity); format: physicochemical; conditions: for Content / Individual impurity / Total impurity: wt %
# Procedure: The crystal form I prepared in above Example 8 was left alone under the stress conditions (temperature: 60° C., humidity: 40° C., RH75%) for 0, 7 and 14 days, after which impurities were measured by using high speed liquid chromatography.
# [4] = Pharmacokinetic (PK) test, oral capsule in beagle dog; format: in vivo; conditions: 100 mg oral, powder in capsule
# Procedure: A pharmacokinetic (PK) experiment was performed on the crystal form I compound according to Example 8.
# The powder of the crystal form I compound of Example 8 was filled into a capsule in an amount of 100 mg, and the capsule was orally administered to a beagle dog at 100 mg once a day, and then the biokinetics of the drug was confirmed.
# Specifically, 100 mg of the crystal form I compound was orally administered to the beagle dog, and blood was collected at a predetermined time, so as to measure a concentration of (S)-4-((1-(4,8-dichloro-1-oxo-2-phenyl-1,2-dihydroisoquinoline-3-yl)ethyl)amino)pyrido[2,3-d]pyrimidine-5(8H)-one. With respect to pharmacokinetic parameters, the BA Calc 2007 program was used to calculate an area under the plasma concentration-time curve from dosing time to final plasma concentration quantification time t (AUCt), area under the plasma concentration-time curve from dosing time to infinite time (AUCi), peak plasma concentration (Cmax), time for maximum plasma concentration (Tmax), and terminal elimination half-life (t1/2). As a result, a significance between substances was confirmed by Student t-test (SPSS) at a 95% confidence interval, and the results thereof are shown in table 2 below.
# [5] = stress: humidity (40° C., RH75%), 7 days
# [6] = stress: humidity (40° C., RH75%), 14 days
# [7] = stress: humidity (40° C., RH75%), zero day (initial)
# [8] = stress: temperature (60° C.), 7 days
# [9] = stress: temperature (60° C.), 14 days
# [10] = stress: temperature (60° C.), zero day (initial)
smiles,measurement,setting,value
"C[C@H](Nc1ncnc2[nH]ccc(=O)c12)c1c(Cl)c2cccc(Cl)c2c(=O)n1-c1ccccc1 [Crystal form I, (S)-4-((1-(4,8-dichloro-1-oxo-2-phenyl-1,2-dihydroisoquinoline-3-yl)ethyl)amino)pyrido[2,3-d]pyrimidin-5(8H)-one]",Crystal form,[1]; six months,Form I
same,Content,[1]; six months,99.7%
same,Individual impurity,[1]; six months,0.02%
same,Total impurity,[1]; six months,0.16%
same,Crystal form,[1]; zero month (initial),Form I
same,Content,[1]; zero month (initial),100.0%
same,Individual impurity,[1]; zero month (initial),0.02%
same,Total impurity,[1]; zero month (initial),0.14%
same,change of impurities and content (in words),"[1]; accelerated conditions, six months",neither significant change nor change with time
same,hygroscopicity (overall assessment),[2],non-hygroscopicity
same,hygroscopicity (overall assessment),[2]; listed as crystal form I,remarkably excellent non-hygroscopicity
same,water (moisture) content by DVS,[2]; relative humidity 0.0 %,0.01%
same,water (moisture) content by DVS,[2]; relative humidity 10.0 %,0.06%
same,water (moisture) content by DVS,[2]; relative humidity 20.0 %,0.11%
same,water (moisture) content by DVS,[2]; relative humidity 30.0 %,0.16%
same,water (moisture) content by DVS,[2]; relative humidity 40.0 %,0.2%
same,water (moisture) content by DVS,[2]; relative humidity 50.0 %,0.24%
same,water (moisture) content by DVS,[2]; relative humidity 60.0 %,0.28%
same,water (moisture) content by DVS,[2]; relative humidity 70.0 %,0.33%
same,water (moisture) content by DVS,[2]; relative humidity 80.0 %,0.38%
same,water (moisture) content by DVS,[2]; relative humidity 90.0 %,0.46%
same,water (moisture) content by DVS,[2]; relative humidity 95.0 %,0.54%
same,Content,Long-term stability test; six months,99.7%
same,Individual impurity,Long-term stability test; six months,0.02%
same,Total impurity,Long-term stability test; six months,0.15%
same,Content,Long-term stability test; zero month (initial),100.0%
same,Individual impurity,Long-term stability test; zero month (initial),0.02%
same,Total impurity,Long-term stability test; zero month (initial),0.14%
same,Crystal form,Long-term stability test; six months,Form I
same,Crystal form,Long-term stability test; zero month (initial),Form I
same,change of impurities and content (in words),"Long-term stability test; long-term conditions, six months",neither significant change nor change with time
same,change of impurities and content (in words),"[3]; stress conditions, 0, 7 and 14 days",neither significant change nor change with time
same,Content,[3]; [5],99.6%
same,Individual impurity,[3]; [5],0.58%
same,Total impurity,[3]; [5],0.64%
same,Content,[3]; [6],100.8%
same,Individual impurity,[3]; [6],0.58%
same,Total impurity,[3]; [6],0.65%
same,Content,[3]; [7],99.1%
same,Individual impurity,[3]; [7],0.58%
same,Total impurity,[3]; [7],0.66%
same,Content,[3]; [8],100.0%
same,Individual impurity,[3]; [8],0.58%
same,Total impurity,[3]; [8],0.64%
same,Content,[3]; [9],99.7%
same,Individual impurity,[3]; [9],0.58%
same,Total impurity,[3]; [9],0.65%
same,Content,[3]; [10],99.1%
same,Individual impurity,[3]; [10],0.58%
same,Total impurity,[3]; [10],0.66%
same,bioavailability (in words),[4],excellent bioavailability
same,concentration in blood (in words),[4],high concentration in blood
same,AUC(0-inf),[4]; plasma,559 ng·h/mL
same,AUC(0-t),[4]; plasma,540 ng·h/mL
same,Cmax,[4]; plasma,215 ng/mL
same,Tmax,[4]; plasma,1.25 h
same,half-life,[4]; plasma,1.56 h
